From patent US12612380B2, “Non-lysosomal glucosylceramidase inhibitors and uses thereof” (ALECTOS THERAPEUTICS INC., priority 2019, dated 2026)
pIC50: −log10 of the molar value. Read-outs that look alike come from different tables or passages of the source.

Tests used:
GBA2 [1] = biological target: T1, GBA2 (Homo sapiens, UniProt Q9HCG7); assay: Binding specificity (selectivity) for GBA2 over other enzymes; format: biochemical; details: compared to a suitable reference compound, e.g. NB-DNJ (miglustat) or AMP-DNM
T1 sequence (Q9HCG7 1-927): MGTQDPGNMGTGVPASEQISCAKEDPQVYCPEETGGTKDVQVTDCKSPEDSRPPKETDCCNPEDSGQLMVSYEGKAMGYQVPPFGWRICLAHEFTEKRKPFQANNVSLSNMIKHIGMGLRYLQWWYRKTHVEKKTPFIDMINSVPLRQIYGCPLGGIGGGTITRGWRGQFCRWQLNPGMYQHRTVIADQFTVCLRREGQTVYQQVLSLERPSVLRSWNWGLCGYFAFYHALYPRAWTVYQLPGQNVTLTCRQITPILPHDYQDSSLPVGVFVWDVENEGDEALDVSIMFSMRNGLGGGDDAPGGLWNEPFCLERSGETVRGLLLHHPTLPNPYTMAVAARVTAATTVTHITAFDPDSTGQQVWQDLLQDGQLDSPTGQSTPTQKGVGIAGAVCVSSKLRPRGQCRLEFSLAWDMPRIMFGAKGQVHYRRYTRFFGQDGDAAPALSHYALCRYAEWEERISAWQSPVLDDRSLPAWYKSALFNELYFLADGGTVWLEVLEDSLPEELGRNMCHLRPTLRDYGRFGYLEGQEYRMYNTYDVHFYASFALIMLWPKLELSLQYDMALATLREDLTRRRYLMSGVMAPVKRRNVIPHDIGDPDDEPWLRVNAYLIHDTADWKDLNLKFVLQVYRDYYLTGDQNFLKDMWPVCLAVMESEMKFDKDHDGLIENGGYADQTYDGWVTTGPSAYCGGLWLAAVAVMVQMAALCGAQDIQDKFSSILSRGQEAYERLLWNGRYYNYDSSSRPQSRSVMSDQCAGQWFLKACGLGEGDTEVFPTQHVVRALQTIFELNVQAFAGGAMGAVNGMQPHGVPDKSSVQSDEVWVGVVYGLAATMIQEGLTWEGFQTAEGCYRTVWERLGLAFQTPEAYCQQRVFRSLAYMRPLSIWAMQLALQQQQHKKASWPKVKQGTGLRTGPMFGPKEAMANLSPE
From the text: In some embodiments, one or more of the compounds according to the invention may specifically bind a GBA2. In alternative embodiments, one or more of the compounds according to the invention may specifically bind the active site of a GBA2. […] In alternative embodiments, one or more of the compounds according to the invention may specifically bind the human non-lysosomal glucosylceramidase (GBA2) over the human lysosomal glucosylceramidase (GCase) and/or the human cytosolic glucosylceramidase (GBA3). In alternative embodiments, one or more of the compounds according to the invention may specifically bind the human non-lysosomal glucosylceramidase (GBA2) over the human glucosylceramide synthase (GCS). In alternative embodiments, one or more of the compounds according to the invention may specifically bind the human non-lysosomal glucosylceramidase (GBA2) over an intestinal alpha-glucosidase, where the intestinal alpha-glucosidase may be a sucrase-isomaltase or a maltase-glucoamylase.

[2] = Brain concentration when administered in vivo; details: compared to a suitable reference compound, e.g. NB-DNJ (miglustat) or AMP-DNM
From the text: Permeability can be assessed using a variety of standard experimental techniques, including without limitation in situ perfusion, ex vivo tissue diffusion, in vitro cell monolayers (e.g. Caco-2 cells, MDCK cells, LLC-PK1 cells), and artificial cell membranes (e.g. PAMPA assay); suitable techniques for measuring effective permeability (Peff) or apparent permeability (Papp) are reviewed for example by Volpe in The AAPS Journal, 2010, 12(4), 670-678. In some embodiments, one or more of the compounds according to the invention may show enhanced permeability when tested in one or more of these assays for determining Peff or Papp. […] In some embodiments, “enhanced permeability” means an increase in measured Peff or Papp by any value between about 10% and about 100%, or of any integer value between about 10% and about 100%, for example, about 10%, 20%, 30%, 40%, 50%, 60%, 70%, 80%, 90%, 100%, or over 100%, or an increase by about 1-fold, 2-fold, or 3-fold, or more, as compared to a suitable reference compound such as, for example, N-butyldeoxynojirimycin (NB-DNJ, miglustat) or N-(5-adamantane-1-yl-methoxy)pentyl)-deoxynojirimycin (AMP-DNM, Genz-529648). In some embodiments, “enhanced permeability” means a measurable Papp value (i.e. a value greater than zero) in a suitable assay to measure Papp using in vitro cell monolayers. In some embodiments, “enhanced permeability” means a Papp value greater than 2×10^−6 cm/s in a suitable assay to measure Papp using in vitro cell monolayers. In alternative embodiments, “enhanced permeability” means a Papp value in the range 2×10^−6 cm/s to 40×10^−6 cm/s in a suitable assay to measure Papp using in vitro cell monolayers. In some embodiments, “higher brain concentration” means an increase in measured brain concentration when the compound is administered in vivo by any value between about 10% and about 100%, or of any integer value between about 10% and about 100%, for example, about 10%, 20%, 30%, 40%, 50%, 60%, 70%, 80%, 90%, 100%, or over 100%, or an increase by about 1-fold, 2-fold, 3-fold, 4-fold, 5-fold, 10-fold, 20-fold, 30-fold, 40-fold, or 50-fold, or more, as compared to a suitable reference compound such as, for example, N-butyldeoxynojirimycin (NB-DNJ, miglustat) or N-(5-adamantane-1-yl-methoxy)pentyl)-deoxynojirimycin (AMP-DNM, Genz-529648).

GBA2 [3] = biological target: T1, GBA2; assay: Determination of IC50 values for inhibition of GBA2 in cell lysate; format: biochemical; set-up: host or cells: HEK293T (lentiviral transduction, puromycin selection); used as cellular homogenate
Method in brief: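 Fluorogenic 4-MU-β-glucoside (250 μM) turnover over 20 min at 37 °C, pH 5.5, measured after NaOH/glycine stop (ex 365, em 450 nm). Enzyme source: lysate (0.083 mg/mL) of lentivirally transduced GBA2-HEK293T, GCase blocked by 20 μM azaspiro-octanediol; compound preincubated 5 min; IC50 = 50% inhibition concentration.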

[4] = cellular homogenate of HEK293T cells overexpressing human GBA2, 250 μM 4-methylumbelliferone-β-D glucopyranoside, pH 5.5, 37° C., GCase inhibitor present, read-out: GBA2 IC50

Row | SMILES | binding specificity (IC50 or Ki of other molecule / GBA2) (GBA2 [1]) | brain concentration when administered in vivo [2] | pIC50 (GBA2 [3]; [4]) | pIC50 (GBA2 [3])
1 | CC(C)[C@H]1CC[C@@H](CN2C[C@H](O)[C@@H](O)[C@H](O)[C@H]2C)CC1 [Example 7, (2R,3R,4R,5S)-1-(((1s,4S)-4-isopropylcyclohexyl)methyl)-2-methylpiperidine-3,4,5-triol] | enhanced binding specificity | higher brain concentrations | > 7.00 | 
2 | C[C@@H]1[C@@H](O)[C@H](O)[C@@H](O)CN1C[C@H]1CC[C@H](C(F)(F)F)CC1 [Example 12, (2R,3R,4R,5S)-2-methyl-1-(((1r,4R)-4-(trifluoromethyl)cyclohexyl)methyl)piperidine-3,4,5-triol] | enhanced binding specificity | higher brain concentrations | > 7.00 | 
3 | C[C@@H]1[C@@H](O)[C@H](O)[C@@H](O)CN1CCc1cccc(Cl)c1F [Example 45, (2R,3R,4R,5S)-1-(3-chloro-2-fluorophenethyl)-2-methylpiperidine-3,4,5-triol] | enhanced binding specificity | higher brain concentrations |  | > 7.00
4 | C[C@@H]1[C@@H](O)[C@H](O)[C@@H](O)CN1CC1CCN(c2ccc(F)cc2)CC1 [Example 85, (2R,3R,4R,5S)-1-((1-(4-fluorophenyl)piperidin-4-yl)methyl)-2-methylpiperidine-3,4,5-triol] |  | higher brain concentrations | > 7.00 | 
5 | C[C@@H]1[C@@H](O)[C@H](O)[C@@H](O)CN1C[C@H]1CCN(c2cccc3scnc23)C1 [Example 129, (2R,3R,4R,5S)-1-(((R)-1-(benzo[d]thiazol-4-yl)pyrrolidin-3-yl)methyl)-2-methylpiperidine-3,4,5-triol] | enhanced binding specificity |  | > 7.00 | 
6 | C[C@@H]1[C@@H](O)[C@H](O)[C@@H](O)CN1C[C@@H]1CCN(c2ccccc2C(F)(F)F)C1 [Example 131, (2R,3R,4R,5S)-2-methyl-1-(((S)-1-(2-(trifluoromethyl)phenyl)pyrrolidin-3-yl)methyl)piperidine-3,4,5-triol] | enhanced binding specificity |  | > 7.00 | 
7 | Cc1ccccc1N1CCC[C@H](CN2C[C@H](O)[C@@H](O)[C@H](O)[C@H]2C)C1 [Example 136, (2R,3R,4R,5S)-2-methyl-1-(((R)-1-(o-tolyl)piperidin-3-yl)methyl)piperidine-3,4,5-triol] | enhanced binding specificity |  | > 7.00 | 
8 | C[C@@H]1[C@@H](O)[C@H](O)[C@@H](O)CN1C[C@H]1CCCN(c2ccccc2F)C1 [Example 137, (2R,3R,4R,5S)-1-(((R)-1-(2-fluorophenyl)piperidin-3-yl)methyl)-2-methylpiperidine-3,4,5-triol] | enhanced binding specificity |  | > 7.00 | 
9 | C[C@@H]1[C@@H](O)[C@H](O)[C@@H](O)CN1C[C@H]1CCCN(c2ncccc2C(F)(F)F)C1 [Example 138, (2R,3R,4R,5S)-2-methyl-1-(((R)-1-(3-(trifluoromethyl)pyridin-2-yl)piperidin-3-yl)methyl)piperidine-3,4,5-triol] | enhanced binding specificity |  | > 7.00 | 
10 | C[C@@H]1[C@@H](O)[C@H](O)[C@@H](O)CN1C[C@H]1CCCN(c2cccc(C(F)(F)F)n2)C1 [Example 139, (2R,3R,4R,5S)-2-methyl-1-(((R)-1-(6-(trifluoromethyl)pyridin-2-yl)piperidin-3-yl)methyl)piperidine-3,4,5-triol] | enhanced binding specificity |  | > 7.00 | 
11 | C[C@@H]1[C@@H](O)[C@H](O)[C@@H](O)CN1C[C@H]1CCCN(c2cnccc2C(F)(F)F)C1 [Example 140, (2R,3R,4R,5S)-2-methyl-1-(((R)-1-(4-(trifluoromethyl)pyridin-3-yl)piperidin-3-yl)methyl)piperidine-3,4,5-triol] | enhanced binding specificity |  | > 7.00 | 
12 | C[C@@H]1[C@@H](O)[C@H](O)[C@@H](O)CN1C[C@@H]1CCCN(c2ncccc2C(F)(F)F)C1 [Example 141, (2R,3R,4R,5S)-2-methyl-1-(((S)-1-(3-(trifluoromethyl)pyridin-2-yl)piperidin-3-yl)methyl)piperidine-3,4,5-triol] | enhanced binding specificity |  | > 7.00 | 
13 | C[C@@H]1[C@@H](O)[C@H](O)[C@@H](O)CN1C[C@@H]1CCCN(c2cnccc2C(F)(F)F)C1 [Example 142, (2R,3R,4R,5S)-2-methyl-1-(((S)-1-(4-(trifluoromethyl)pyridin-3-yl)piperidin-3-yl)methyl)piperidine-3,4,5-triol] | enhanced binding specificity |  | > 7.00 | 
14 | O[C@H]1[C@H](O)[C@@H](O)CN(C[C@H]2CC[C@H](C(F)(F)F)CC2)[C@@H]1CF [Example 147, (2S,3R,4R,5S)-2-(fluoromethyl)-1-(((1r,4S)-4-(trifluoromethyl)cyclohexyl)methyl)piperidine-3,4,5-triol] | enhanced binding specificity |  | > 7.00 | 
15 | O[C@H]1[C@H](O)[C@@H](O)CN(CCc2c(F)cc(-c3ccccc3)cc2F)[C@@H]1CF [Example 151, (2S,3R,4R,5S)-1-(2-(3,5-difluoro-[1,1′-biphenyl]-4-yl)ethyl)-2-(fluoromethyl)piperidine-3,4,5-triol] | enhanced binding specificity |  | > 7.00 | 
16 | O[C@H]1[C@H](O)[C@@H](O)CN(CCc2cc3c(cc2F)OCO3)[C@@H]1CF [Example 152, (2S,3R,4R,5S)-1-(2-(6-fluorobenzo[d][1,3]dioxol-5-yl)ethyl)-2-(fluoromethyl)piperidine-3,4,5-triol] | enhanced binding specificity |  |  | > 7.00
